{"source": "patent US20110257146A1", "about": "“Method of Treating Kcnq Related Disorders Using Organozinc Compounds” (The johns Hopkins University, priority 2006, published 2011)", "key": {"KCNQ3": {"biological_target": "T1, KCNQ3 (Rattus norvegicus, UniProt O88944)", "T1 construct": "expressed in transfected cells; host or cells: CHO cells", "test": "Whole-cell voltage clamp of CHO cells expressing KCNQ3", "assay_type": "cell-based", "settings": "10 μM ZnPy", "experimental": "(§1) Cell culture and transient transfection—Chinese Hamster Ovary (CHO) cells were grown in 50/50 DMEM/F12 (Cellgro) with 10% FBS (Gibco), 100 U/ml penicillin (Cellgro), 100 μg/ml streptomycin (Cellgro) and 2 mM L-glutamine (Gibco). At 24 hours before transfection, cells were split and plated in 60 mm dishes and were transfected with Lipofectamine2000™ reagent (Invitrogen) according to the manufacturer's instruction. At 24 hours after transfection, cells were split and re-plated onto coverslips coated with poly-L-lysine (Sigma). Plasmid expressing CD4 cDNA as a marker was cotransfected with the channel cDNAs of hKCNQ1 (from Dr. Michael Sanguinetti), hKCNQ4 (from Dr. Vitya Vardanyan), rKCNQ2, rKCNQ3, and hKCNQ5 (from Drs. David McKinnon, Mark Shapiro, and Thomas Jentsch). Prior to recording, anti-CD4 Dynabeads (Dynal. Biotech. Inc.) were added into the medium to allow for identification of the transfected cells. […]\n(§2) Electrophysiological Recording—Standard whole-cell recording was used. […] Current and voltage were recorded using an Axopatch-200A amplifier, filtered at 1 kHz and digitized using a DigiData 1322A with pClamp 9.2 software (Axon Instruments, Foster City, Calif.). […]\nData and Statistical Analysis—Patch-clamp data were preprocessed using Clampfit 9.2 (Axon Instruments, Foster City, Calif.) and then analyzed in Origin 7 (OriginLab, Northampton, Mass.). […]"}, "KCNQ1": {"biological_target": "T2, KCNQ1 (Homo sapiens, UniProt P51787)", "T2 construct": "expressed in transfected cells; host or cells: CHO cells", "test": "Whole-cell voltage clamp of CHO cells expressing KCNQ1", "assay_type": "cell-based", "settings": "10 μM ZnPy, extracellular", "experimental": "as §1, with “cells. Stable lines expressing Kv2.1, hERG, and Kv4.2 were generated by standard protocols using pcDNA3.1 and maintained at complete medium supplemented with 500 μg/ml G418.” for “cells.”\nas §2"}, "[1]": {"biological_target": "T3, Kv4.2 A-type potassium channel (Homo sapiens, UniProt Q9NZV8)", "T3 construct": "expressed in transfected cells", "test": "Channel activity in Kv4.2 stable line", "assay_type": "cell-based", "experimental": "as §1, with “cells. Stable lines expressing Kv2.1, hERG, and Kv4.2 were generated by standard protocols using pcDNA3.1 and maintained at complete medium supplemented with 500 μg/ml G418.” for “cells.”\nas §2"}, "KCNQ2(R207W)": {"biological_target": "T4, KCNQ2(R207W) (Rattus norvegicus, UniProt O88943, R207W)", "T4 construct": "expressed in transfected cells; host or cells: CHO cells, transient", "test": "Whole-cell recording of KCNQ2(R207W) BFNC mutant in CHO cells", "assay_type": "cell-based", "settings": "10 μM ZnPy", "experimental": "FIG. 11. ZnPy effects on BFNC mutant channels expressed in CHO cells. A. whole-cell currents of KCNQ2(R207W), KCNQ2(Y284C), and KCNQ2(A306T) were recorded in the absence (left) and presence (right) of 10 μM ZnPy, Vh was −80 mV, in 10 mV voltage steps from −70 mV to +50 mV. B. a histogram plotting potentiation effects on KCNQ2 wild type (wt) and BFNC mutants (R207W, Y284C and […]) by ZnPy (filled box) and retigabine (open box) (n≧4, * p<0.001, ** p<0.05).\nMutagenesis—Starting from KCNQ cDNAs, the KCNQ2 point mutants were constructed by recombinant PCR and verified by sequencing.\nElectrophysiological Recording—Standard whole-cell recording was used. Pipettes were pulled from borosilicate glass capillaries (TW150-4, World Precision Instruments, Sarasota, Fla.). When filled with the intracellular solution, the pipettes have resistances of […]. During the recording, constant perfusion of extracellular solution was maintained using a BPS perfusion system (ALA, Westbury, N.Y.). Pipette solution contained (mM): KCl 145, MgCl2 1, EGTA 5, HEPES 10, MgATP 5 (pH 7.3); extracellular solution contained (mM): NaCl 140, KCl 3, CaCl2 2, MgCl2 1.5, HEPES 10, glucose 10 (pH 7.4). Current and voltage were recorded using an Axopatch-200A amplifier, filtered at 1 kHz and digitized using a DigiData 1322A with pClamp 9.2 software (Axon Instruments, Foster City, Calif.). […]"}, "hippocampal neurons": {"tested_on": "hippocampal neurons", "test": "Membrane potential and elicited action potentials of isolated hippocampal neurons", "assay_type": "cell-based, rat", "settings": "10 μM ZnPy", "experimental": "FIG. 10. ZnPy potentiation of native M-current. A. M current recorded from an isolated rat dorsal root ganglion neuron, Vh was −60 mV, stepped to −20 mV, followed by a step to −50 mV, and stepped back to −20 mV. B. Histograms show M-current amplitudes in the presence and absence of 10 μM ZnPy (n=10, * p<0.001). M-current amplitudes were measured by fitting the IM relaxation with an exponential equation. The recording bath solution includes 1 μM TTX, 0.2 mM TEA, 1 mM 4-AP, 50 μM CNQX, and 10 μM bicuculline. C. Membrane potential of an isolated hippocampal neuron was monitored when 10 μM ZnPy was applied in bath solution followed by the addition of 15 μM linopirdine. D. Action potentials elicited by 200 pA current injection to a patched hippocampal neuron. The ZnPy treatments are as indicated.\nNeuron Culture—Dorsal root ganglia (DRG) was collected from fourteen-day-old CD rat and incubated in collagenase (sigma, 500 U/ml, 15 min) and then trypsin (Sigma, 1 mg/ml, 30 min) at 37° C. Single DRG neurons were isolated by mechanical trituration with a fire-polished glass Pasteur pipette. Hippocampal tissue was dissected out from CD rat postnatal day 0. The tissue was digested with papain (Worthington Biochem, 20 U/ml, 30 min) and resuspended into single cells. The single-cell suspension was plated onto a monolayer of glial cells that were growing on coated cover slips. Cytosine-1-D-arabinofuranoside at 5 μM was added into the culture medium 24-48 hours later to arrest glial cell proliferation. The culture medium consisted of Neurobasal™ medium with B-27 supplement (Gibco), penicillin/streptomycin and 2 mM L-glutamine. All cells were maintained at 37° C. with 5% CO2 prior to recording.\nas §2, with “used. Pipettes were pulled from borosilicate glass capillaries (TW150-4, World Precision Instruments, Sarasota, Fla.).” for “used.”"}}, "note": "Entries after “also recorded” stand apart in the source; their conditions may differ."}
{"compound": "S=c1ccccn1[O][Zn][O]n1ccccc1=S", "note": "[ZnPy, Zinc Pyrithione]", "values": [{"measurement": "change of V1/2", "setting": "KCNQ3", "result": "no change on V1/2"}, {"measurement": "current potentiation", "setting": "KCNQ3; extracellular", "result": "did not show any current potentiation; also recorded: has no effect on KCNQ3"}, {"measurement": "effect on channel activity", "setting": "KCNQ1", "result": "potentiated; also recorded: potentiates KCNQ1"}, {"measurement": "potentiation of channel activity", "setting": "[1]", "result": "did not potentiate"}, {"measurement": "fold current increase", "setting": "KCNQ2(R207W)", "result": "more than 3 fold"}, {"measurement": "effect on membrane potential", "setting": "hippocampal neurons", "result": "noticeable hyperpolarization of membrane potential"}, {"measurement": "effect on repetitive firing elicited by current injection", "setting": "hippocampal neurons; 200 pA current injection", "result": "immediately abolished the repetitive firing"}]}
